Assay: Phase 1 SAD/MAD pharmacokinetics
Assay type: in vivo
Source text: The phase 1 study was placebo controlled and double blinded and included 52 subjects in SAD studies and 20 subjects in MAD studies.

NCCN1CCOCC1 [aminoethyl morpholine metabolite, aminoethyl morpholine]
food effect (elderly adults, fed versus fasted): apparent food effect | pharmacokinetics after single oral doses (exposure proportional to dose over 100-900 mg of free base): linear pharmacokinetics | time to reach steady state upon multiple dosing (in vivo): approximately 5 days post dose

— patent US20240398822A1, “METHODS AND COMPOSITIONS FOR TREATING AND MANAGING ALZHEIMER'S DISEASE” (Pharmatrophix, Inc., priority 2021, published 2024)
